According to patent US10239831B2, “Method for producing bis(3-aminophenyl)disulfides and 3-aminothiols” (BAYER CROPSCIENCE AG, priority 2012, dated 2019):

Assay: log P determination
Assay type: physicochemical
Conditions: for chromatographic logP: HCOOH (acidic); for logP: neutral

For `O=[N+]([O-])c1cc(SSc2cc([N+](=O)[O-])c(Cl)cc2Cl)c(Cl)cc1Cl` [Example 5, 1,1′-Disulphanediylbis(2,4-dichloro-5-nitrobenzene)], which chromatographic logP is on record?
The chromatographic logP was 5.69.

And the logP?
Its logP is 5.64.

What does the source list for `Nc1cc(SSc2cc(N)c(Cl)cc2Cl)c(Cl)cc1Cl` [Example 14, 3,3′-Disulphanediylbis(4,6-dichloroaniline)]?
chromatographic logP: 5.14; logP: 4.95
